Data from patent publication US20140249135A1, “PIM KINASE INHIBITORS AND METHODS OF THEIR USE” (NOVARTIS AG, priority 2007, published 2014).

Assays:
Type in all cases: biochemical
Pim2 kinase = Pim2 kinase (Homo sapiens, UniProt Q9P1W9); experiment: Pim2 ATP depletion assay; conditions: read-out: PIM2 IC50;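 also: Luciferase-based luminescent readout of ATP remaining after PIM2 phosphorylates a BAD peptide, final 5 nM enzyme, 4 µM ATP, 10 µM peptide, 2.5% DMSO, run to roughly half ATP consumption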
Pim3 kinase = Pim3 kinase (Homo sapiens, UniProt Q86V86); experiment: Pim3 ATP depletion assay; conditions: read-out: PIM3 IC50
Pim1 kinase = Pim1 kinase (Homo sapiens, UniProt P11309); experiment: Pim1 ATP depletion assay; conditions: Pim1 ATP depletion assay; read-out: PIM1 IC50;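 also: Luciferase-luciferin luminescence readout of residual ATP after PIM1 transfers phosphate to a peptide substrate, 40 µM ATP added, reaction run to roughly half ATP consumption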

Measured: IC50

Pim1 kinase, sequence (P11309 whole entry): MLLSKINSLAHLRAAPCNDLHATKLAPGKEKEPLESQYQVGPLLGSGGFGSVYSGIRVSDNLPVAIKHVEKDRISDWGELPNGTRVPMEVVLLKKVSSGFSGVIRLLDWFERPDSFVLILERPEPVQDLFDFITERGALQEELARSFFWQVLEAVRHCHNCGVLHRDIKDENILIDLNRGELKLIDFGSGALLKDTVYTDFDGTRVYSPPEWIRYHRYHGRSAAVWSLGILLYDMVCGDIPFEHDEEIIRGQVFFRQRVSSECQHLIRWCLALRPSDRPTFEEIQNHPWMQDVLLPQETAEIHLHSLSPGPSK
Pim2 kinase, sequence (Q9P1W9 whole entry): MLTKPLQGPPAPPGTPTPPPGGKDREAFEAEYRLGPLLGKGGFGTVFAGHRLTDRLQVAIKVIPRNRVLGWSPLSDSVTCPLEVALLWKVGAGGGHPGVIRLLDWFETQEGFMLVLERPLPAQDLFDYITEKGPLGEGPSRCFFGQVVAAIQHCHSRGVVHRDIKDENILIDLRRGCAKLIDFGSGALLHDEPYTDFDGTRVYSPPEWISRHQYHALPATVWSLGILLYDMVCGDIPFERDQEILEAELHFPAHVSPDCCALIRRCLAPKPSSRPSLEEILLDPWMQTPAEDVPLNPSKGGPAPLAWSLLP

N#Cc1ccc(-c2ccc(N)c(C(=O)Nc3cnccc3N3CCC[C@H](N)C3)n2)c(F)c1 [Example 686, 3-Amino-6-(4-cyano-2-fluoro-phenyl)-pyridine-2-carboxylic acid (3-amino-3,4,5,6-tetra-hydro-2H-[1,4′]bipyridinyl-3′-yl)-amide]
< 1000 nM: all assays above

CC(C)/C=C\c1ccc(F)c(-c2ccc(N)c(C(=O)Nc3cnccc3N3CCC[C@H](N)C3)n2)c1 [Example 687, 3-Amino-6-[2-fluoro-5-(3-methyl-but-1-enyl)-phenyl]-pyridine-2-carboxylic acid (3-amino-3,4,5,6-tetrahydro-2H-[1,4′]bipyridinyl-3′-yl)-amide]
< 1000 nM: all assays above

Nc1ccc(-c2cncs2)nc1C(=O)Nc1cnccc1N1CCC[C@H](N)C1 [Example 688, 3-Amino-6-thiazol-5-yl-pyridine-2-carboxylic acid (3-amino-3,4,5,6-tetrahydro-2H-[1,4′]bipyridinyl-3′-yl)-amide]
< 1000 nM: all assays above

CC(C)N(C)C(=O)c1ccc(F)c(-c2ccc(N)c(C(=O)Nc3cnccc3N3CCC[C@H](N)C3)n2)c1F [Example 689, 3-Amino-6-[2,6-difluoro-3-(isopropyl-methyl-carbamoyl)-phenyl]-pyridine-2-carboxylic acid (3-amino-3,4,5,6-tetra-hydro-2H-[1,4′]bipyridinyl-3′-yl)-amide]
< 1000 nM: all assays above

Nc1ccc(-c2ncccc2F)nc1C(=O)Nc1cnccc1N1CCC[C@H](O)C1 [Example 690, 5-Amino-3′-fluoro-[2,2′]bi-pyridinyl-6-carboxylic acid (3-hydroxy-3,4,5,6-tetrahydro-2H-[1,4′]bipyridinyl-3′-yl)-amide]
< 1000 nM: all assays above

NC(=O)c1ccc(-c2ccc(N)c(C(=O)Nc3cnccc3N3CCC[C@H](N)C3)n2)nc1 [Example 691, 5′-Amino[2,2′]bipyridinyl-5,6′-dicarboxylic acid 5-amide 6′-[(3-amino-3,4,5,6-tetrahydro-2H-[1,4′]bipyridinyl-3′-yl)-amide]]
< 1000 nM: all assays above

Nc1ccc(-c2cncc3ccccc23)nc1C(=O)Nc1cnccc1N1CCC[C@H](N)C1 [Example 692, 3-Amino-6-isoquinolin-4-yl-pyridine-2-carboxylic acid (3-amino-3,4,5,6-tetrahydro-2H-[1,4′]bipyridinyl-3′-yl)-amide]
< 1000 nM: all assays above

Nc1ccc(-c2cccc[n+]2[O-])nc1C(=O)Nc1cnccc1N1CCC[C@H](N)C1 [Example 693, 5-Amino-1′-oxy-[2,2′]bi-pyridinyl-6-carboxylic acid (3-amino-3,4,5,6-tetrahydro-2H-[1,4′]bipyridinyl-3′-yl)-amide]
< 1000 nM: all assays above

COc1nccnc1-c1ccc(N)c(C(=O)Nc2cnccc2N2CCC[C@H](N)C2)n1 [Example 694, 3-Amino-6-(3-methoxy-pyrazin-2-yl)-pyridine-2-carboxylic acid (3-amino-3,4,5,6-tetrahydro-2H-[1,4′]bipyridinyl-3′-yl)-amide]
< 1000 nM: all assays above

Nc1ccc(-c2cccc(OCc3ccccc3)n2)nc1C(=O)Nc1cnccc1N1CCC[C@H](N)C1 [Example 695, 5-Amino-6′-benzyloxy-[2,2′]bi-pyridinyl-6-carboxylic acid (3-amino-3,4,5,6-tetrahydro-2H-[1,4′]bipyridinyl-3′-yl)-amide]
< 1000 nM: all assays above
